Reference: US20240294478A1, “ANTI-CANCER COMPOUNDS AND METHODS OF USE” (YALE UNIVERSITY, priority 2021, published 2024)
Read-outs that look alike come from different tables or passages of the source.

Tests used:
LN229 MGMT−/MMR+ cells = experiment: Short-term cell viability assay, LN229 MGMT-/MMR+; assay type: cell-based, human; settings: for IC50: Homo sapiens, read-out: IC50 against LN229 cell lines, MGMT− MMR+; for MGMT− TI: Table III
Experimental: (§1) LN229 MGMT- and MGMT+ cell lines were a gift from B. Kaina (Johannes Gutenberg University Mainz, Mainz, Germany) and grown in Gibco® Duilbecco's Modified Eagle Medium with 10% fetal bovine serum (DMEM). For each compound tested, the relationship between MGMT status and MMR status and compound activity, in terms of IC50 values ([…]), was determined by the following method. On day 1, LN229 isogenic cells of varying MGMT and MMR status were seeded in 96 well format at a density of 2000 cells/well in 100 μL of DMEM media and allowed to adhere overnight. On day 2, a drug master plate was made with 100×the desired maximal concentration of test compound and serially diluted by 2 until 100×the minimal desired concentration, with one DMSO control. Then daughter plates were created with varied concentrations from 3-times the minimal concentration to 3-times the maximal desired concentration. Afterwards, 50 μL of daughter drug plate was added to 100 μL of the seeded cells for a final concentration of 1×in triplicate. Cells were allowed to grow for 6 days. On day 7, the cells were fixed, and stained with Hoechst nuclear dye and imaged to determine growth inhibition.
For each compound tested, the relationship between MGMT status and MMR status and compound activity, in terms of IC50 values (in μM), was determined. In addition, for each compound, the therapeutic index (TI) was calculated, according to the equation MGMT TI=IC50 (MGMT+/MMR+) divided by IC50 (MGMT−/MMR+). The T1 indicates the efficacy of a compound in treating the targeted MGMT-cancer cells as compared to potential for the same compound to damage, or have adverse effects against, normal cells which are MGMT+cells, The higher the value of the TI, the safer the compound is. […] MMR RI (resistance index)=IC50 (MGMT−/MMR−) divided by IC50 (MGMT−/MMR+). The higher the value of the RI, the less likely that resistance to the compound will develop.
(§2) Short-term Cell Viability Assay. Cells were seeded in 96-well plates at 1000 or 2000 cells/well and allowed to adhere at 23° C. for 60 min and then incubated overnight at 37° C. Cells were treated with indicated concentrations of compounds in triplicate for 4-6 days prior to fixation with 3.7% paraformaldehyde and nuclear staining with 1 μg/mL Hoechst 33342 dye. Cells were imaged on a Cytation 3 imaging reader (BioTek) and quantified using CellProfiler software. For in vitro short-term growth delay experiments, IC50 values were determined from the nonlinear regression equation, [inhibitor] vs normalized response with variable slope.

LN229 MGMT−/MMR− cells = experiment: Short-term cell viability assay, LN229 MGMT-/MMR- (shRNA targeting MSH2); assay type: cell-based, human; settings: for IC50: Homo sapiens, read-out: IC50 against LN229 cell lines, MGMT− MMR−; for activity in MGMT−/MMR− cells, in words: LN229 MGMT−/MMR−
Experimental: as §1
For each compound tested, the relationship between MGMT status and MMR status and compound activity, in terms of IC50 values (in μM), was determined. In addition, for each compound, the therapeutic index (TI) was calculated, according to the equation MGMT TI=IC50 (MGMT+/MMR+) divided by IC50 (MGMT−/MMR+). […] MMR RI (resistance index)=IC50 (MGMT−/MMR−) divided by IC50 (MGMT−/MMR+).
as §2, with “Cells were treated with indicated concentrations of compounds in triplicate for 4-6 days prior to fixation with 3.7% paraformaldehyde and nuclear staining with 1 μg/mL Hoechst 33342 dye.” left out

LN229 MGMT+ shMSH3 cells = experiment: Short-term viability assay, LN229 MGMT+ shMSH3; assay type: cell-based; settings: Homo sapiens, LN-229, Table III, read-out: IC50 against LN229 cell lines, MGMT MMR−
Experimental: The activity of KL-50 in MGMT-LN229 cells engineered to lack expression of other key MMR proteins including MSH6, MLH1, PMS2, and MSH3 was also confirmed. Western blotting was performed in LN229 MGMT+/−cells with stable expression of shRNA targeting MSH6, MLH1, PMS2, or MSH3 to confirm depletion of the shRNA targets. In shMSH6 cells, there was reduced expression of MSH2, and in shMLH1 cells, there was loss of PMS2, due to destabilization in the setting of loss of their heterodimeric partners. GAPDH serves as loading control. […] Short-term viability assay curves for KL-50 in LN229 MGMT+/−, MMR+/shMSH6 cells. […] Short-term viability assay curves for KL-50 in LN229 MGMT+/−, MMR+/shMLH1 cells. […] Short-term viability assay curves for KL-50 in LN229 MGMT+/−, MMR+/shPMS2 cells. […] Short-term viability assay curves for KL-50 in LN229 MGMT+/−, MMR+/shMSH3 cells.
MMR Protein shRNA Knockdown. pGIPZ lentiviral shRNA vectors targeting MSH2, MSH6, MLH1, PMS2, and MSH3 were purchased from Horizon Discovery (Table IV). […]
Short-term Cell Viability Assay. […] Cells were imaged on a Cytation 3 imaging reader (BioTek) and quantified using CellProfiler software. For in vitro short-term growth delay experiments, IC50 values were determined from the nonlinear regression equation, [inhibitor] vs normalized response with variable slope.

[1] = LN-229, 144 h, Table 1, 6 days growth

## NC(=O)c1ncn2c(=O)n(CCF)nnc12 [KL-50]
LN229 MGMT−/MMR+ cells; LN-229, Table III, shRNA None
  IC50: 13.2 ± 0.8 µM
LN229 MGMT−/MMR+ cells; LN-229, Table II
  IC50: 24.7 ± 4.1 µM
LN229 MGMT−/MMR+ cells; LN229 isogenic lines
  TI / RI, in words: superior TI and RI
LN229 MGMT−/MMR+ cells; Table II, IC50 (MGMT+/MMR+) divided by IC50 (MGMT−/MMR+)
  MGMT− TI (therapeutic index): 24
LN229 MGMT−/MMR+ cells; shRNA None
  MGMT− TI: 22
LN229 MGMT−/MMR− cells; LN-229, Table II
  IC50: 22 ± 6.9 µM
LN229 MGMT−/MMR− cells
  activity in MGMT−/MMR− cells, in words: exquisite sensitivity
LN229 MGMT−/MMR− cells; Table II, IC50 (MGMT−/MMR−) divided by IC50 (MGMT−/MMR+)
  MGMT− RI (resistance index): 0.9
LN229 MGMT+ shMSH3 cells
  IC50: 328 ± 26 µM

## Cn1nnc2c(C(N)=O)ncn2c1=O [TMZ, 4-methyl-5-oxo-2,3,4,6,8-pentazabicyclo[4.3.0]nona-2,7,9-triene-9-carboxamide, reference compound]
LN229 MGMT−/MMR+ cells; [1]
  IC50: 8.3 ± 3.5 µM
LN229 MGMT−/MMR+ cells; LN-229, Table III, shRNA None
  IC50: 5.1 ± 0.8 µM
LN229 MGMT−/MMR+ cells; LN-229, Table II
  IC50: 8.3 ± 3.5 µM
LN229 MGMT−/MMR+ cells; shRNA None
  MGMT− TI: 137
LN229 MGMT−/MMR− cells; [1]
  IC50: 838 ± 100 µM
LN229 MGMT−/MMR− cells; LN-229, Table II
  IC50: 838 ± 100 µM
LN229 MGMT−/MMR− cells
  activity in MGMT−/MMR− cells, in words: essentially inactive
LN229 MGMT+ shMSH3 cells
  IC50: 649 ± 32 µM
